Data set [1] deals with MDAMB453 cells. As to the kind of experiment: Growth survival assay after IR with DHT or ENZ pretreatment. In kind it is cell-based, human.
Protocol: (a) (Top) Cells were cultured in steroid-deprived media −/+ DHT for 24 hours and then treated with IR: mock (ϕ), 4 Gy, or 6 Gy. Cells were then supplemented with hormone-proficient media at 48 hours post-IR. Cell number was determined on day 14-21. (Bottom) Cells were cultured in hormone-proficient media for 24 hours without or with enzalutamide (ENZ) and then treated with IR; mock (ϕ) or 4 Gy. Error bars represent normalized s.e.m of at least three experiments. (b) MCF7, BT474, CAMA1, HCC202, and MDAMB453 cells were treated with ENZ, ENZ+IR, DHT, or DHT+IR as in (a). […] Error bars represent normalized s.e.m of at least three experiments and the Student's t-test was used for statistical analysis. *, P<0.05. […]
(§2) Cells were plated using a Multidrop Combi liquid handler (Thermo Fisher) in at least quadruplicates for each time point at three cell densities (range 25-225 cells per well) in a white 384-well plate (Corning, N.Y.). […] Relative luminescence units were measured using an Envision multilabel plate reader (Perkin Elmer) with a measurement time of 0.1 seconds. Luminescence signal is proportional to the amount of ATP present. […] The luminescence signal was plotted as a function of cell density and a cell density within the linear range for luminescence (or growth) was selected to generate integral survival for each cell line. […]
Data set [2] has as its system MCF7, BT474, CAMA1, HCC202, MDAMB453, HMC18 cells. The experiment in a line: Growth survival assay after IR across several breast cancer cell lines. The settings on record: only in cell lines that expressed AR, independent of ER and ErbB2 activity. The class given is cell-based, human.
Protocol: (a) (Top) Cells were cultured in steroid-deprived media −/+ DHT for 24 hours and then treated with IR: mock (ϕ), 4 Gy, or 6 Gy. Cells were then supplemented with hormone-proficient media at 48 hours post-IR. Cell number was determined on day 14-21. (Bottom) Cells were cultured in hormone-proficient media for 24 hours without or with enzalutamide (ENZ) and then treated with IR; mock (ϕ) or 4 Gy. Error bars represent normalized s.e.m of at least three experiments. (b) MCF7, BT474, CAMA1, HCC202, and MDAMB453 cells were treated with ENZ, ENZ+IR, DHT, or DHT+IR as in (a). HMC18 cells were treated similarly but were profiled by clonogenic survival assays. […]
as §2
Data set [3] has as its system MDAMB453 cells. As to the kind of experiment: Neutral comet assay. In kind it is cell-based, human. The settings on record: pretreated 24 hours prior to 15 Gy of irradiation; ENZ 20 μM. Here is the method:
(§1) Single-cell gel electrophoresis was conducted in alkaline or neutral buffer according to the manufacturer's instructions, Trevigen (Gaithersburg, Md.). Slides were blinded and enumerated by a single user.

Data set [4] deals with MDAMB453 cells. As to the kind of experiment: γH2AX formation and resolution kinetics (Western blot). In kind it is cell-based, human. The settings on record: 3 Gy; effect persisted at 24 hours. A general note: A western blot detects proteins with antibodies after separation by electrophoresis.
For data set [5], the system named is C4-2 prostate cancer cells. Conditions: AR-positive cells; 2 Gy.
Protocol: (a) (Top) Cells were cultured in steroid-deprived media −/+ DHT for 24 hours and then treated with IR: mock (ϕ), 4 Gy, or 6 Gy. Cells were then supplemented with hormone-proficient media at 48 hours post-IR. […] (Bottom) Cells were cultured in hormone-proficient media for 24 hours without or with enzalutamide (ENZ) and then treated with IR; mock (ϕ) or 4 Gy. Error bars represent normalized s.e.m of at least three experiments. […] Error bars represent normalized s.e.m of at least three experiments and the Student's t-test was used for statistical analysis. *, P<0.05. […] Error bars represent s.e.m of at least three experiments and the Student's t-test was used for statistical analysis. *, P<0.05. (d) Cells were cultured in hormone-proficient (FBS) media for 24 hours −/+ ENZ and then treated with IR: mock (ϕ 3 Gy (HMC18 and MDAMB453), or 2 Gy (C4-2). Cells were cultured in steroid-deprived media for 48 hours, treated −/+ DHT for 24 hours, and then treated with IR: mock (ϕ), 3 Gy (HMC18 and MDAMB453), or 2 Gy (C4-2). γH2AX, HDAC1, and actin levels were measured at the indicated time points. Relative intensity of γH2AX was calculated by ImageJ64. (e) MDAMB453 cells were cultured in steroid-replete, steroid-deficient, or steroid-deficient with 1 nM DHT for 24 hours, then treated with irradiation. Cells were harvested and expression of γDNAPKcs was analyzed. […]
The subject of data set [6] is MDAMB453 cells. Conditions: steroid-deprived media supplemented with 1 nM DHT for 24 hours.
Protocol: (d) Cells were cultured in hormone-proficient (FBS) media for 24 hours −/+ ENZ and then treated with IR: mock (ϕ 3 Gy (HMC18 and MDAMB453), or 2 Gy (C4-2). Cells were cultured in steroid-deprived media for 48 hours, treated −/+ DHT for 24 hours, and then treated with IR: mock (ϕ), 3 Gy (HMC18 and MDAMB453), or 2 Gy (C4-2). γH2AX, HDAC1, and actin levels were measured at the indicated time points. Relative intensity of γH2AX was calculated by ImageJ64. (e) MDAMB453 cells were cultured in steroid-replete, steroid-deficient, or steroid-deficient with 1 nM DHT for 24 hours, then treated with irradiation. Cells were harvested and expression of γDNAPKcs was analyzed.
Whole cell lysates were prepared using M-PER lysis buffer and clarified by centrifugation. Proteins were separated by SDS-PAGE and transferred onto 0.45 μM nitrocellulose membranes (Maine Manufacturing; Sanford, Me.). After primary antibody incubation for 1-2 hours at room temperature, washings, and incubation with secondary antibodies, blots were developed with a chemoluminescence system (Amersham/GE Healthcare). For γH2AX measurements, proteins were transferred onto 0.2 μM nitrocellulose (Bio-Rad).
The phosphorylation of DNAPKcs on Ser2056 was examined, which is indicative of activated DNAPKcs, in MDAMB453 cells.
For data set [7], the system named is BT474 cells. The experiment in a line: Neutral comet assay. In kind it is cell-based, human. The settings on record: irradiated (10 Gy) after 24 hours of treatment with ENZ (20 μM). Here is the method: FIG. 16: AR regulates DNA damage and repair in AR, ER positive cells.
as §1

Data set [8] concerns HMC18 cells. As to the kind of experiment: γH2AX formation and resolution kinetics (Western blot). The class given is cell-based, human. The settings on record: AR-negative cells; 3 Gy.
For data set [9], the system named is MDAMB453 orthotopic xenografts. As to the kind of experiment: MDAMB453 orthotopic xenograft study.
Protocol: (g) MDAMB453 cells were orthotopically injected into the mammary gland of NSG mice and block randomized into one of four treatment arms as shown. Tumor volume was measured daily. Error bars represent normalized s.e.m of at least seven mice in each treatment arm. *, P<0.05 compared with all other treatment conditions based on ANOVA and Tukey Contrasts. **, P<0.05 for interaction based on two-way ANOVA. […] This cohort received ENZ at 25 mg kg^−1. (i) Average weight for each arm in both cohorts was measured weekly. Data are expressed as the means±s.e. of at least seven mice in each treatment arm.
Female NSG mice, 6-8 weeks of age, were obtained from the Cleveland Clinic Biological Resources Unit facility. All mouse studies were conducted under a protocol approved by the Cleveland Clinic Institutional Animal Care and Use Committee MDAMB453 cells were resuspended in serum free media and injected into the inguinal mammary gland. Once tumors reached 200 mm^3, mice were block randomized and assigned to vehicle, enzalutamide, vehicle plus radiotherapy, or enzalutamide plus radiotherapy. Two cohorts consisting of these four arms underwent treatment. Vehicle consisted of a volume of 5 mL per kg of PEG-400 solution containing 1.5%/0 of DMSO for cohort 1 and 2.5% DMSO for cohort 2 via oral gavage daily. Cohort 1 received enzalutamide at 15 mg kg^−1 and cohort 2 received enzaluatmide at 25 mg kg^−1. Radiotherapy was delivered to a dose of 1.5 Gy in three fractions once tumor size reached 250 mm^3. Treatment was not blinded to the investigator. Tumor volume was measured daily. Mice were sacrificed once their tumors reached an approximate size of 1,000 mm^3 or at treatment days 21-28. The significance of the difference between treatment groups was assessed by one-way and the interaction between drug and radiation was measured by two-way ANOVA.

Consider `C[C@]12CCC(=O)C[C@@H]1CC[C@@H]1[C@@H]2CC[C@]2(C)[C@@H](O)CC[C@@H]12` [DHT, Dihydrotestosterone], for which the “Cell growth after radiation” value in data set [1] (DHT re-supplementation in steroid-deprived media before radiation, IR 4 or 6 Gy) was “dose dependent rescue of cell growth”. For the same compound, the “Protection or sensitization to radiation” value in data set [2] was “protection”. The “DNA damage (double-strand breaks)” value in data set [3] is given as “decreased”. Besides, in data set [4], the “Levels of γH2AX after irradiation” value is reported as “decreased”. In addition, the γH2AX resolution entry in [5] is given as “hastened γH2AX resolution”. The “γDNAPKcs levels following irradiation” value in [6] was “maintained γDNAPKcs at similar levels to those cells grown in the steroid-replete media”.
For the compound `CNC(=O)c1ccc(N2C(=S)N(c3ccc(C#N)c(C(F)(F)F)c3)C(=O)C2(C)C)cc1F` [ENZ, enzalutamide], the “Cell number after radiation” value in [1] (hormone-proficient media, ENZ 24 hours before IR 4 Gy, compared to vehicle) is “decreased cell number compared to vehicle alone”. For the same compound, in [2], the “Protection or sensitization to radiation” value is “sensitization”. Besides, the “DNA damage (double-strand breaks)” value in data set [3] was “increased DNA damage”. Besides, the Double-strand breaks result in data set [7] was “increased double-strand breaks”. Moreover, in [4], the “Levels of γH2AX after irradiation” value is given as “increased shortly after irradiation”. For the same compound, the “Kinetics of γH2AX formation and resolution” value in data set [8] is given as “unaffected”. In addition, the “Tumor growth, ENZ alone” value in data set [9] (15 mg kg^−1, used alone) is given as “no effects on tumor growth”. Further, the “Tumor suppression, interaction with radiotherapy” value in [9] (15 mg kg^−1 plus radiotherapy) is “interactive tumor suppression with radiotherapy”. In addition, in data set [9] (25 mg kg^−1), the “Tumor growth, ENZ” value is reported as “Suppression of tumor growth”. For the same compound, the “Body weight loss during the course of treatment” value in data set [9] (ENZ 25 mg kg^−1 and radiation) is approximately 10%. For the same compound, in data set [9] (ENZ at 15 mg kg^−1 or 25 mg kg^−1 plus ionizing radiation), the “Tumor growth, combination with ionizing radiation” value is reported as “more effective suppression of tumor growth than either modality alone”.

These data come from patent US10391173B2, “Anti-ar agent and radiation therapy for androgen receptor positive cancer” (The Cleveland Clinic Foundation, priority 2016, dated 2019).
